IC50 data for 28 compounds are collected here from patent US20240083897A1, “GCN2 MODULATING COMPOUNDS AND USES THEREOF” (HiberCell, Inc., priority 2021, published 2024).

In general, IC50 refers to the point on the concentration scale where inhibition reaches its midpoint. Higher therefore signals lower potency.

Where a name gives a salt, the structure may show the parent alone.

One experiment deals with GCN2 (Homo sapiens (Human), UniProt Q9P2K8). The experiment in a line: TR-FRET biochemical assay for inhibition of GCN2.
Sequence of GCN2 (Q9P2K8 whole entry): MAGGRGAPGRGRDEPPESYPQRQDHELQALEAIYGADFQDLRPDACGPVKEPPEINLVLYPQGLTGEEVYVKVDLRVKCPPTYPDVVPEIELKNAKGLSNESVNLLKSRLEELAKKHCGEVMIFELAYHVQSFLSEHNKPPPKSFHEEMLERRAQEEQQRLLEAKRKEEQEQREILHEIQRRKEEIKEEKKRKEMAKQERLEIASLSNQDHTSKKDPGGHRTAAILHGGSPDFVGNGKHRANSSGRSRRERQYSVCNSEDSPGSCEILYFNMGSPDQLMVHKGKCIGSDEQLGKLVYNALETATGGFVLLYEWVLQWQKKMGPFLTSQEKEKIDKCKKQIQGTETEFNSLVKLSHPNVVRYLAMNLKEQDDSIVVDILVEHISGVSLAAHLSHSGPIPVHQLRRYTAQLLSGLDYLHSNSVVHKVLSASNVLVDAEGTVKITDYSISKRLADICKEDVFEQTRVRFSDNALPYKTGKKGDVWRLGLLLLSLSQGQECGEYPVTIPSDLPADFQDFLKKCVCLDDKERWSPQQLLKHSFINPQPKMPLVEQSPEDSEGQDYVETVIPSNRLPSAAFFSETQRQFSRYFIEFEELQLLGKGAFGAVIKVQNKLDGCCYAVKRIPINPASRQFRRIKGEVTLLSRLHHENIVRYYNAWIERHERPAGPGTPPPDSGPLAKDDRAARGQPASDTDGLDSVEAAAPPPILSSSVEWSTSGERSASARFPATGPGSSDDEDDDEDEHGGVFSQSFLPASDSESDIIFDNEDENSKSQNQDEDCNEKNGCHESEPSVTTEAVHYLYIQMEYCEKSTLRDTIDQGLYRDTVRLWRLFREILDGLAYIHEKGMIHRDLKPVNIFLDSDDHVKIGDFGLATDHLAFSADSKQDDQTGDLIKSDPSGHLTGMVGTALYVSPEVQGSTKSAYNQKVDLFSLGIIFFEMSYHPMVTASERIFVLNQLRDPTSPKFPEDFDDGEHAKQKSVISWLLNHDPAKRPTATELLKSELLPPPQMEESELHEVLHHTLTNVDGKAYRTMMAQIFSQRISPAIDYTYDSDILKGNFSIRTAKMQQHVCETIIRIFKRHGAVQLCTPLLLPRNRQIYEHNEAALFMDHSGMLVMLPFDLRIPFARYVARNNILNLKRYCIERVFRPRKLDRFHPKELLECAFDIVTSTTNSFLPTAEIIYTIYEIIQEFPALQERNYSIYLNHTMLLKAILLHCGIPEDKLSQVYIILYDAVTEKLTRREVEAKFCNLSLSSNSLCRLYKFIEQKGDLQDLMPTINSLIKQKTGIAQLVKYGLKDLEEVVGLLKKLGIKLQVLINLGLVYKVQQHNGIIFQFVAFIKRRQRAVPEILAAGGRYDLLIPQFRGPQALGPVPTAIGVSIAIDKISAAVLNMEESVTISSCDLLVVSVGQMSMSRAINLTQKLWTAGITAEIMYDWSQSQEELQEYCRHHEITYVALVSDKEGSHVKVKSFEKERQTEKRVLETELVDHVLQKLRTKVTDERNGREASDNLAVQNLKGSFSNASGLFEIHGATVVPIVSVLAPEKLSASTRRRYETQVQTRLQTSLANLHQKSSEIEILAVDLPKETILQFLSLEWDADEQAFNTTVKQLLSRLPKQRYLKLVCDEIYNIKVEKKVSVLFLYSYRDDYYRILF
Settings: not given
Background: TR-FRET usually uses a lanthanide donor and a delayed reading to cut background.
As for `CNC(=O)c1ncn2c1CC[C@H](c1c(F)ccc(NS(=O)(=O)c3cc(F)cnc3OC)c1Cl)C2` [Compound 152-1, (6R)-6-[2-chloro-6-fluoro-3-(5-fluoro-2-methoxypyridine-3-sulfonamido)phenyl]-N-methyl-5H,6H,7H,8H-imidazo[1,5-a]pyridine-1-carboxamide], the IC50 is 50 to 500 nM.
On the same count and under the same terms, under `CNC(=O)c1ncn2c1CC[C@@H](c1c(F)ccc(NS(=O)(=O)c3cc(F)cnc3OC)c1Cl)C2` [Compound 152-2, (6S)-6-[2-chloro-6-fluoro-3-(5-fluoro-2-methoxypyridine-3-sulfonamido)phenyl]-N-methyl-5H,6H,7H,8H-imidazo[1,5-a]pyridine-1-carboxamide] stands 50 to 500 nM.
Same read-out and setting: next, `CNC(=O)c1ncn2c1CO[C@@H](c1c(F)ccc(NS(=O)(=O)c3cc(Cl)cnc3OC)c1F)C2` [Compound 154-1, (6S)-6-[3-(5-chloro-2-methoxypyridine-3-sulfonamido)-2,6-difluorophenyl]-N-methyl-5H,6H,8H-imidazo[4,3-c][1,4]oxazine-1-carboxamide]: 50 to 500 nM.
Same read-out and setting: under `CNC(=O)c1ncn2c1CO[C@H](c1c(F)ccc(NS(=O)(=O)c3cc(Cl)cnc3OC)c1F)C2` [Compound 154-2, (6R)-6-[3-(5-chloro-2-methoxypyridine-3-sulfonamido)-2,6-difluorophenyl]-N-methyl-5H,6H,8H-imidazo[4,3-c][1,4]oxazine-1-carboxamide hydrochloride] stands 50 to 500 nM; under `CCOc1ncc(Cl)cc1S(=O)(=O)Nc1ccc(F)c(-c2cn3cnc(C(=O)NC)c3cn2)c1F` [Compound 167, 6-[3-(5-chloro-2-ethoxypyridine-3-sulfonamido)-2,6-difluorophenyl]-N-methylimidazo[1,5-a]pyrazine-1-carboxamide], 50 to 500 nM; under `CNC(=O)c1ncn2cc(-c3c(F)ccc(NS(=O)(=O)c4cc(Cl)cnc4OC(C)C)c3F)ncc12` [Compound 168, 6-[3-(5-chloro-2-isopropoxypyridine-3-sulfonamido)-2,6-difluorophenyl]-N-methylimidazo[1,5-a]pyrazine-1-carboxamide], 50 to 500 nM.
`CNC(=O)c1ncn2cc(-c3c(F)ccc(NS(=O)(=O)c4cc(Cl)cnc4OC4CC4)c3F)ncc12` [Compound 169, 6-[3-(5-chloro-2-cyclopropoxypyridine-3-sulfonamido)-2,6-difluorophenyl]-N-methylimidazo[1,5-a]pyrazine-1-carboxamide] gave an IC50 of 50 to 500 nM.
Regarding `CNC(=O)c1ncn2c(F)c(-c3c(F)ccc(NS(=O)(=O)c4cc(F)cnc4OC)c3F)ncc12` [Compound 170, 6-[2,6-difluoro-3-(5-fluoro-2-methoxypyridine-3-sulfonamido)phenyl]-5-fluoro-N-methylimidazo[1,5-a]pyrazine-1-carboxamide], the IC50 fell in the range of 50 to 500 nM.
Same read-out and setting: under `COc1ncc(Cl)cc1S(=O)(=O)Nc1ccc(F)c(-c2cn3cnc(C(=O)NCCCN(C)C)c3cn2)c1F` [Compound 172, 6-[3-(5-chloro-2-methoxypyridine-3-sulfonamido)-2,6-difluorophenyl]-N-[3-(dimethylamino)propyl]imidazo[1,5-a]pyrazine-1-carboxamide] stands 50 to 500 nM.

Still in this experiment, the particulars now being: GCN2 2 nM, 100 nM GFP-eIF2a, 150 μM ATP, TR-FRET.
As for `Cc1ncc(Cl)cc1S(=O)(=O)Nc1ccc(F)c(-c2ccc3c(-c4nc(C)c(C)[nH]4)ncn3c2)c1F` [Compound 146, 5-chloro-N-(3-(1-(4,5-dimethyl-1H-imidazol-2-yl)imidazo[1,5-a]pyridin-6-yl)-2,4-difluorophenyl)-2-methylpyridine-3-sulfonamide], the IC50 is under 50 nM.
The same measure, in the same setting: under `COc1ncc(Cl)cc1S(=O)(=O)Nc1ccc(F)c(-c2ccc3c(-c4nc5c([nH]4)CCCC5)ncn3c2)c1F` [Compound 147, 5-chloro-N-(2,4-difluoro-3-(1-(4,5,6,7-tetrahydro-1H-benzo[d]imidazol-2-yl)imidazo[1,5-a]pyridin-6-yl)phenyl)-2-methoxypyridine-3-sulfonamide] stands under 50 nM.
The compound `COc1ncc(F)cc1S(=O)(=O)Nc1ccc(F)c(-c2ccc3c(-c4nc5c([nH]4)CCCC5)ncn3c2)c1F` [Compound 148, N-(2,4-difluoro-3-(1-(4,5,6,7-tetrahydro-1H-benzo[d]imidazol-2-yl)imidazo[1,5-a]pyridin-6-yl)phenyl)-5-fluoro-2-methoxypyridine-3-sulfonamide] had an IC50 of under 50 nM.
The same measure, in the same setting: under `Cc1ncc(F)cc1S(=O)(=O)Nc1ccc(F)c(-c2ccc3c(-c4nc5c([nH]4)CCCC5)ncn3c2)c1F` [Compound 149, N-(2,4-difluoro-3-(1-(4,5,6,7-tetrahydro-1H-benzo[d]imidazol-2-yl)imidazo[1,5-a]pyridin-6-yl)phenyl)-5-fluoro-2-methylpyridine-3-sulfonamide] stands under 50 nM.
On the same count and under the same terms, next, `Cc1ncc(Cl)cc1S(=O)(=O)Nc1ccc(F)c(-c2ccc3c(-c4nc5c([nH]4)CCCC5)ncn3c2)c1F` [Compound 150, 5-chloro-N-(2,4-difluoro-3-(1-(4,5,6,7-tetrahydro-1H-benzo[d]imidazol-2-yl)imidazo[1,5-a]pyridin-6-yl)phenyl)-2-methylpyridine-3-sulfonamide]: under 50 nM.
The compound `COc1ncc(F)cc1S(=O)(=O)Nc1ccc(F)c(-c2cn3cnc(-c4ncc[nH]4)c3cn2)c1Cl` [Compound 151, N-[2-chloro-4-fluoro-3-[1-(1H-imidazol-2-yl)imidazo[1,5-a]pyrazin-6-yl]phenyl]-5-fluoro-2-methoxypyridine-3-sulfonamide] displayed an IC50 of under 50 nM.
On the same count and under the same terms, under `COC(=O)c1ccc2nc(-c3ncn4cc(-c5c(F)ccc(NS(=O)(=O)c6cc(F)cnc6OC)c5F)ncc34)[nH]c2c1` [Compound 153, methyl 2-[6-[2,6-difluoro-3-(5-fluoro-2-methoxypyridine-3-sulfonamido)phenyl]imidazo[1,5-a]pyrazin-1-yl]-3H-1,3-benzodiazole-5-carboxylate] stands under 50 nM.
On the same count and under the same terms, under `COc1ncc(F)cc1S(=O)(=O)Nc1ccc(F)c(-c2cn3cnc(-c4nc(-c5ccccc5)c[nH]4)c3cn2)c1F` [Compound 156, N-[2,4-difluoro-3-[1-(4-phenyl-1H-imidazol-2-yl)imidazo[1,5-a]pyrazin-6-yl]phenyl]-5-fluoro-2-methoxypyridine-3-sulfonamide] stands under 50 nM.
The compound `COc1ncc(Cl)cc1S(=O)(=O)Nc1ccc(F)c(-c2cn3cnc(C(=O)NC(C)C)c3cn2)c1F` [Compound 157, 6-[3-(5-chloro-2-methoxypyridine-3-sulfonamido)-2,6-difluorophenyl]-N-isopropylimidazo[1,5-a]pyrazine-1-carboxamide] had an IC50 of under 50 nM.
Same read-out and setting: next, `COc1ncc(Cl)cc1S(=O)(=O)Nc1ccc(F)c(-c2cn3cnc(C(=O)NCC(C)C)c3cn2)c1F` [Compound 158, 6-[3-(5-chloro-2-methoxypyridine-3-sulfonamido)-2,6-difluorophenyl]-N-(2-methylpropyl)imidazo[1,5-a]pyrazine-1-carboxamide]: under 50 nM; `COc1ncc(Cl)cc1S(=O)(=O)Nc1ccc(F)c(-c2cn3cnc(C(=O)NCC(F)(F)F)c3cn2)c1F` [Compound 159, 6-[3-(5-chloro-2-methoxypyridine-3-sulfonamido)-2,6-difluorophenyl]-N-(2,2,2-trifluoroethyl)imidazo[1,5-a]pyrazine-1-carboxamide]: under 50 nM; `CNC(=O)c1ncn2c(F)c(-c3c(F)ccc(NS(=O)(=O)c4cc(Cl)cnc4OC)c3F)ncc12` [Compound 160, 6-[3-(5-chloro-2-methoxypyridine-3-sulfonamido)-2,6-difluorophenyl]-5-fluoro-N-methylimidazo[1,5-a]pyrazine-1-carboxamide]: under 50 nM.
The same measure, in the same setting: under `COc1ncc(Cl)cc1S(=O)(=O)Nc1ccc(F)c(-c2cn3cnc(C(=O)NCCO)c3cn2)c1F` [Compound 161, 6-[3-(5-chloro-2-methoxypyridine-3-sulfonamido)-2,6-difluorophenyl]-N-(2-hydroxyethyl)imidazo[1,5-a]pyrazine-1-carboxamide] stands under 50 nM.
Compound `COc1ncc(Cl)cc1S(=O)(=O)Nc1ccc(F)c(-c2cn3cnc(C(=O)Nc4cnn(C)c4)c3cn2)c1F` [Compound 162, 6-[3-(5-chloro-2-methoxypyridine-3-sulfonamido)-2,6-difluorophenyl]-N-(1-methylpyrazol-4-yl)imidazo[1,5-a]pyrazine-1-carboxamide] registered an IC50 of under 50 nM.
Same read-out and setting: under `COc1ncc(Cl)cc1S(=O)(=O)Nc1ccc(F)c(-c2cn3cnc(C(=O)NCC4CCOCC4)c3cn2)c1F` [Compound 163, 6-[3-(5-chloro-2-methoxypyridine-3-sulfonamido)-2,6-difluorophenyl]-N-(oxan-4-ylmethyl)imidazo[1,5-a]pyrazine-1-carboxamide] stands under 50 nM.
Same read-out and setting: next, `COc1ncc(Cl)cc1S(=O)(=O)Nc1ccc(F)c(-c2cn3cnc(C(=O)NCCS(C)(=O)=O)c3cn2)c1F` [Compound 164, 6-[3-(5-chloro-2-methoxypyridine-3-sulfonamido)-2,6-difluorophenyl]-N-(2-methanesulfonylethyl)imidazo[1,5-a]pyrazine-1-carboxamide]: under 50 nM; `CCNC(=O)c1ncn2cc(-c3c(F)ccc(NS(=O)(=O)c4cc(Cl)cnc4OC)c3F)ncc12` [Compound 165, 6-[3-(5-chloro-2-methoxypyridine-3-sulfonamido)-2,6-difluorophenyl]-N-ethylimidazo[1,5-a]pyrazine-1-carboxamide]: under 50 nM; `COc1ncc(Cl)cc1S(=O)(=O)Nc1ccc(F)c(-c2cn3cnc(C(=O)NCC4CC4)c3cn2)c1F` [Compound 166, 6-[3-(5-chloro-2-methoxypyridine-3-sulfonamido)-2,6-difluorophenyl]-N-(cyclopropylmethyl)imidazo[1,5-a]pyrazine-1-carboxamide]: under 50 nM.
The same measure, in the same setting: under `COc1ncc(Cl)cc1S(=O)(=O)Nc1ccc(F)c(-c2cn3cnc(C(N)=O)c3cn2)c1F` [Compound 171, 6-[3-(5-chloro-2-methoxypyridine-3-sulfonamido)-2,6-difluorophenyl]imidazo[1,5-a]pyrazine-1-carboxamide] stands under 50 nM.
